Experimental data published in patent US20220041583A1, “IMMUNOMODULATORS, COMPOSITIONS AND METHODS THERE OF” (BETTA PHARMACEUTICALS CO., LTD, priority 2018, published 2022).

Target: T1, PD-1/PD-L1 (Homo sapiens, UniProt Q9NZQ7)
T1 construct: Recombinant human PD-L1 protein (19-238) with a His-tag at the C-terminus; purchased AcroBiosystems PD1-H5229 (PD-L1); PD1-H5257 (PD-1)
Assay: PD-1/PD-L1 homogenous time-resolved fluorescence (HTRF) binding assay
Experimental: Resolved Fluorescence (HTRF) Binding Assay
The assays were conducted in a standard black 384-well polystyrene plate with a final volume of 20 μL. Inhibitors were first serially diluted in DMSO and then added to the plate wells before the addition of other reaction components. The final concentration of DMSO in the assay was 1%. The assays were carried out at 25° C. in the PBS buffer (pH 7.4) with 0.05% Tween-20 and 0.1% BSA. Recombinant human PD-L1 protein (19-238) with a His-tag at the C-terminus was purchased from AcroBiosy stems (PD1-H5229). Recombinant human PD-1 protein (25-167) with Fc tag at the C-terminus was also purchased from AcroBiosystems (PD1-H5257). PD-L1 and PD-1 proteins were diluted in the assay buffer and 10 μL was added to the plate well. Plates were centrifuged and proteins were preincubated with inhibitors for 40 min. The incubation was followed by the addition of 10 μL of HTRF detection buffer supplemented with Europium cryptate-labeled anti-human IgG (PerkinElmer-AD0212) specific for Fc and anti-His antibody conjugated to SureLight®-Allophycocyanin (APC, PerkinElmer-AD0059H). After centrifugation, the plate was incubated at 25° C. for 60 min. Before reading on a PHERAstar FS plate reader (665 nm/620 nm ratio). Final concentrations in the assay were […] PD1, 10 nM PD-L1, 1 nM europium anti-human IgG and 20 nM anti-His-Allophycocyanin. IC50 determination was performed by fitting the curve of percent control activity versus the log of the inhibitor concentration using the GraphPad Prism 5.0 software.

T1 sequence (Q9NZQ7 19-238): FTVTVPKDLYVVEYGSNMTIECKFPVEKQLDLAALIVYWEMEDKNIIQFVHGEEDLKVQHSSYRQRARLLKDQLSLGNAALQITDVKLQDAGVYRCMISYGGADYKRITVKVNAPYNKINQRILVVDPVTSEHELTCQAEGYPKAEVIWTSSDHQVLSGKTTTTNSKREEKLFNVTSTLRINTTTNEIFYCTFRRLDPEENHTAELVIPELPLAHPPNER

Row | Structure (SMILES) | IC50 (Table 6, numeric values) [nM] | IC50 (Table 6, class symbols) [nM]
1 | CSc1cc2oc(-c3cccc(-c4ccccc4)c3C)nc2cc1CN1CCCC[C@H]1C(=O)O [Example 1, (S)-1-((2-(2-methyl-[1,1′-biphenyl]-3-yl)-6-(methylthio)benzo[d]oxazol-5-yl)methyl)piperidine-2-carboxylic acid] | 1.9 | –
2 | CSc1cc2oc(-c3cccc(-c4ccccc4)c3C)nc2cc1CN[C@@H](C(=O)O)[C@@H](C)O [Example 3, ((2-(2-methyl-[1,1′-biphenyl]-3-yl)-6-(methylthio)benzo[d]oxazol-5-yl)methyl)-D-allothreonine] | – | 10 to 100
3 | CSc1cc2oc(-c3cccc(-c4ccccc4)c3C)nc2cc1CN[C@H](C(=O)O)[C@H](C)O [Example 4, ((2-(2-methyl-[1,1′-biphenyl]-3-yl)-6-(methylthio)benzo[d]oxazol-5-yl)methyl)-L-allothreonine] | – | 0.1 to 10
4 | CSc1cc2oc(-c3cccc(-c4ccccc4)c3C)nc2cc1CN[C@@H](C)C(=O)O [Example 5, ((2-(2-methyl-[1,1′-biphenyl]-3-yl)-6-(methylthio)benzo[d]oxazol-5-yl)methyl)-L-alanine] | – | 0.1 to 10
5 | CSc1cc2oc(-c3cccc(-c4ccccc4)c3C)nc2cc1CN[C@H](C)C(=O)O [Example 6, ((2-(2-methyl-[1,1′-biphenyl]-3-yl)-6-(methylthio)benzo[d]oxazol-5-yl)methyl)-D-alanine] | – | 10 to 100
6 | CSc1cc2oc(-c3cccc(-c4ccccc4)c3C)nc2cc1CN1CCC[C@@H]1C(=O)O [Example 7, ((2-(2-methyl-[1,1′-biphenyl]-3-yl)-6-(methylthio)benzo[d]oxazol-5-yl)methyl)-D-proline] | – | 0.1 to 10
7 | CSc1cc2oc(-c3cccc(-c4ccccc4)c3C)nc2cc1CN1CCCCC1CO (centres unmarked) [Example 8, (1-((2-(2-methyl-[1,1′-biphenyl]-3-yl)-6-(methylthio)benzo[d]oxazol-5-yl)methyl)piperidin-2-yl)methanol] | – | 10 to 100
8 | CSc1cc2oc(-c3cccc(-c4ccccc4)c3C)nc2cc1CN1CCOC[C@H]1C(=O)O [Example 9, (S)-4-((2-(2-methyl-[1,1′-biphenyl]-3-yl)-6-(methylthio)benzo[d]oxazol-5-yl)methyl)morpholine-3-carboxylic acid] | – | 0.1 to 10
9 | CC[C@H](NCc1cc2nc(-c3cccc(-c4ccccc4)c3C)oc2cc1SC)C(=O)O [Example 10, (S)-2-(((2-(2-methyl-[1,1′-biphenyl]-3-yl)-6-(methylthio)benzo[d]oxazol-5-yl)methyl)amino)butanoic acid] | – | 0.1 to 10
10 | CC[C@@H](NCc1cc2nc(-c3cccc(-c4ccccc4)c3C)oc2cc1SC)C(=O)O [Example 11, (R)-2-(((2-(2-methyl-[1,1′-biphenyl]-3-yl)-6-(methylthio)benzo[d]oxazol-5-yl)methyl)amino)butanoic acid] | – | 10 to 100
11 | CSc1cc2oc(-c3cccc(-c4ccccc4)c3C)nc2cc1CN[C@H](CO)C(=O)O [Example 12, ((2-(2-methyl-[1,1′-biphenyl]-3-yl)-6-(methylthio)benzo[d]oxazol-5-yl)methyl)-D-serine] | – | 0.1 to 10
12 | CSc1cc2oc(-c3cccc(-c4ccccc4)c3C)nc2cc1CN[C@@H](CO)C(=O)O [Example 13, ((2-(2-methyl-[1,1′-biphenyl]-3-yl)-6-(methylthio)benzo[d]oxazol-5-yl)methyl)-L-serine] | – | 0.1 to 10
13 | CSc1cc2oc(-c3cccc(-c4ccccc4)c3C#N)nc2cc1CN1CCC[C@H]1C(=O)O [Example 14, ((2-(2-cyano-[1,1′-biphenyl]-3-yl)-6-(methylthio)benzo[d]oxazol-5-yl)methyl)-L-proline] | – | 0.1 to 10
14 | CSc1cc2oc(-c3cccc(-c4ccccc4C#N)c3C#N)nc2cc1CN1CCC[C@H]1C(=O)O [Example 15, ((2-(2,2′-dicyano-[1,1′-biphenyl]-3-yl)-6-(methylthio)benzo[d]oxazol-5-yl)methyl)-L-proline] | – | 10 to 100
15 | CSc1cc2oc(-c3cccc(-c4ccccc4)c3C)nc2cc1CN1CCCC1(C)C(=O)O (centres unmarked) [Example 16, 2-methyl-1-((2-(2-methyl-[1,1′-biphenyl]-3-yl)-6-(methylthio)benzo[d]oxazol-5-yl)methyl)pyrrolidine-2-carboxylic acid] | – | 0.1 to 10
16 | Cc1cc2oc(-c3cccc(-c4ccccc4)c3C#N)nc2cc1CN1CCC[C@@H]1C(=O)O [Example 17, ((2-(2-cyano-[1,1′-biphenyl]-3-yl)-6-methylbenzo[d]oxazol-5-yl)methyl)-D-proline] | – | 0.1 to 10
17 | Cc1cc2oc(-c3cccc(-c4ccccc4)c3C#N)nc2cc1CN1CCC[C@H]1C(=O)O [Example 18, ((2-(2-cyano-[1,1′-biphenyl]-3-yl)-6-methylbenzo[d]oxazol-5-yl)methyl)-L-proline] | – | 0.1 to 10

More lines, now with the values ahead:

Row | IC50 (Table 6, numeric values) [nM] | IC50 (Table 6, class symbols) [nM] | Structure (SMILES)
18 | – | 0.1 to 10 | Cc1cc2oc(-c3cccc(-c4ccccc4)c3C#N)nc2cc1CN1CCOC[C@H]1C(=O)O [Example 19, (S)-4-((2-(2-cyano-[1,1′-biphenyl]-3-yl)-6-methylbenzo[d]oxazol-5-yl)methyl)morpholine-3-carboxylic acid]
19 | – | 10 to 100 | Cc1c(-c2ccccc2)cccc1-c1nc2cc(CN3CCC[C@H]3C(=O)O)c(O)cc2o1 [Example 21, ((6-hydroxy-2-(2-methyl-[1,1′-biphenyl]-3-yl)benzo[d]oxazol-5-yl)methyl)-L-proline]
20 | – | 10 to 100 | Cc1c(-c2ccccc2)cccc1-c1nc2cc(CN3CC[C@H](O)C3)c(F)cc2o1 [Example 23, (S)-1-((6-fluoro-2-(2-methyl-[1,1′-biphenyl]-3-yl)benzo[d]oxazol-5-yl)methyl)pyrrolidin-3-ol]
21 | 7.2 | – | Cc1c(-c2ccccc2)cccc1-c1nc2cc(CN3CCC[C@H]3C(=O)O)c(F)cc2o1 [Example 24, ((6-fluoro-2-(2-methyl-[1,1′-biphenyl]-3-yl)benzo[d]oxazol-5-yl)methyl)-L-proline]
22 | 7.4 | – | Cc1c(-c2ccccc2)cccc1-c1nc2cc(CN3CCCC[C@H]3C(=O)O)c(F)cc2o1 [Example 25, (S)-1-((6-fluoro-2-(2-methyl-[1,1′-biphenyl]-3-yl)benzo[d]oxazol-5-yl)methyl)piperidine-2-carboxylic acid]
23 | – | 0.1 to 10 | Cc1c(-c2ccccc2)cccc1-c1nc2cc(CN3CCCCC3C(=O)O)c(C#N)cc2o1 (centres unmarked) [Example 26, 1-((6-cyano-2-(2-methyl-[1,1′-biphenyl]-3-yl)benzo[d]oxazol-5-yl)methyl)piperidine-2-carboxylic acid]
24 | – | 0.1 to 10 | CNc1cc2oc(-c3cccc(-c4ccccc4)c3C)nc2cc1CN1CCCCC1C(=O)O (centres unmarked) [Example 27, 1-((2-(2-methyl-[1,1′-biphenyl]-3-yl)-6-(methylamino)benzo[d]oxazol-5-yl)methyl)piperidine-2-carboxylic acid]
25 | 4.8 | – | Cc1c(-c2ccccc2)cccc1-c1nc2cc(CN[C@@H](C(=O)O)[C@@H](C)O)c(OC(F)F)cc2o1 [Example 30, ((6-(difluoromethoxy)-2-(2-methyl-[1,1′-biphenyl]-3-yl)benzo[d]oxazol-5-yl)methyl)-D-allothreonine]
26 | 3.2 | – | Cc1c(-c2ccccc2)cccc1-c1nc2cc(CN[C@H](C(=O)O)[C@H](C)O)c(OC(F)F)cc2o1 [Example 31, ((6-(difluoromethoxy)-2-(2-methyl-[1,1′-biphenyl]-3-yl)benzo[d]oxazol-5-yl)methyl)-L-allothreonine]
